Data set [1] concerns CSH. The data set can be described thus: Circulating CSH at different stages of differentiation, colony cultures of blood mononuclear cells from treated mice (Example 7, figures 14a-d). The following applies: once daily for three consecutive days, MDM 25 mg/kg with or without AZT 50 mg/kg; blood collected 24 h after the last administration. It counts as in vivo, souris (10 Balb/c par groupe). From the text: Ces expériences ont pour objet la mise en évidence des différentes populations de CSH présentes dans le sang circulant.
Ont été recherchés les stades suivants depuis les plus primitifs décelables en culture et qui ne présentent aucun signe de différenciation comme les CFAC (Coblestone Area Forming Cells) et LTC-IC (Long Term Culture - Initiating Cells) jusqu'au GM-CFU (Granulocyte Macrophage - Colony Forming Units) en passant par des stades intermédiaires comme les HPP et LPP-CFU (respectivement High Proliferating Potential and Low Proliferating Potential CFU). Dans tous les cas, les conditions de cultures, en particulier leur durée, ont été choisies pour permettre une détection optimale des différentes populations considérées.
Ont été comparés pour cette étude l'effet de l'injection de saline (X-), d'AZT à 50 mg/kg, du MDM à 25 mg/kg et le mélange des deux sur le nombre de CSH cirulants. Les cellules mononucléaires après purification ont été cultivées pendant 5 jours pour dénombrer les GM-UFC (pour granulocytes - macrophages unités formant colonies), pendant 28 jours pour dénombrer les unités formant colonies à bas potentiel prolifératif (LPP) et les UFC à haut potentiel prolifératif (HPP). Les CAFC ont été dénombrés après 14 jours de culture. Les LTC-IC après 28 jours. Les résultats sont présentés sur les figures 14a, 14b, 14c et 14d respectivement. […]

Data set [2] has as its system globules rouges et les plaquettes. Put plainly: Red blood cell and platelet counts after 7 days of oral AZT, Muradimétide or both (Example 3, figures 9 and 10). It counts as in vivo, souris femelles BALB/c. As to conditions: p.o. once daily for 7 days: 100 mg/kg AZT, 50 mg/kg muradimétide, or both simultaneously; counts up to day 10. From the text:
La figure 9 représente l'effet du traitement per os de souris BALB/c pendant 7 jours consécutifs avec de l'AZT, du Muradimétide (MDM) ou un mélange de ceux-ci sur la numération plaquettaire.
La figure 10 représente l'effet du traitement per os de souris BALB/c pendant 7 jours consécutifs avec de l'AZT, du Muradimétide (MDM) ou un mélange de ceux-ci sur le nombre des globules rouges.
L'effet d'un traitement de 7 jours sur le nombre de globules rouges et de plaquettes est indiqué dans les figures 9 et 10 respectivement. Les numérations sont représentées en pourcentage de celles obtenues au jour 0. Des souris femelles BALB/c (5 par groupe) sont traitées une fois par jour pendant 7 jours consécutifs par 100 mg/kg d'AZT (Δ), 50 mg/kg de muradimétide (D) ou simultanément par 100 mg/kg d'AZT et 50 mg/kg de muradimétide (O). Les comptages de plaquettes ou de globules rouges ont été réalisés au jour 0 et jusqu'à 10 jours suivant le début du traitement. […] La tendance à l'augmentation de leur nombre apparaît entre les jours 4 et 5. En revanche, l'anémie qui pourrait être observée dans les groupes traités pourrait être due aux saignements répétés; néanmoins la vitesse et l'importance de l'anémie est grandement réduite chez les animaux traités avec le mélange des deux produits en comparaison avec celui observé dans le groupe traité par l'AZT seul. […]

The subject of data set [3] is leucocytes circulants normaux (majoritairement neutrophiles et lymphocytes) et immatures (myélocytes). Put plainly: Circulating blood cell counts in mice after 4 consecutive days of i.v. Muradimétide alone (Example 1). It counts as in vivo, souris. As to conditions: for Nbre de Leucocytes / Nbre de Lymphocytes / Nbre de Myélocytes / Nbre de Neutrophiles: Muradimétide 25 mg/kg i.v., 4 consecutive days. The procedure: Le tableau 1 ci-dessous représente les numérations des leucocytes, neutrophiles, lymphocytes et myélocytes en fonction du temps après traitement par le Muradimétide seul administré à la dose de 25 mg/kg. Le traitement est effectué pendant 4 jours consécutifs par injection intraveineuse.
Effet de 4 jours de traitement consécutifs des souris par voie veineuse avec le Muradimétide (25 mg/kg) sur les modifications du nombre de leucocytes circulants normaux (majoritairement neutrophiles et lymphocytes) et immatures (myélocytes).

SMILES strings stand for the structures.

For the molecule `COC(=O)CC[C@@H](NC(=O)[C@H](C)NC(=O)[C@@H](C)O[C@H]1[C@H](O)[C@@H](CO)OC(O)[C@@H]1NC(C)=O)C(=O)OC` (stereo partly drawn) [Muradimétide, Nac-Mur-L-Ala-D-Glu-[OCH3]-OCH3], the “nombre de CSH circulants (GM-CFU, LPP-CFU, HPP-CFU)” value in data set [1] is listed as “apparaît clairement”. In addition, the “toxicité sur les plaquettes” value in data set [2] is “Aucune toxicité”. Besides, the “Nbre de Leucocytes” value in data set [3] (day 0) is 50 ± 14° x 10^5/ml; in data set [3] (day 2), 52±12 x 10^5/ml; in data set [3] (day 3) it was 52 ± 17 x 10^5/ml; in data set [3] (day 4) it was 52 ± 15 x 10^5/ml; in data set [3] (day 7) it was 50±13 x 10^5/ml. Also, the “Nbre de Lymphocytes” value in data set [3] (day 0) is 38±12 x 10^5/ml; in data set [3] (day 2), 41 ± 17 x 10^5/ml; in data set [3] (day 3) it was 35 ± 13 x 10^5/ml; in data set [3] (day 4), 34 ± 8 x 10^5/ml; in data set [3] (day 7), 38±10 x 10^5/ml. In addition, the “Nbre de Myélocytes” value in data set [3] (day 0) is listed as 7 ± 6 x 10^4/ml; in data set [3] (day 2) it was 8±8 x 10^4/ml; in data set [3] (day 3), 40±5 x 10^4/ml; in data set [3] (day 4), 72 ± 27 x 10^4/ml; in data set [3] (day 7) it was 4 ± 4 x 10^4/ml. Besides, the “Nbre de Neutrophiles” value is reported as 11±3 x 10^5/ml in data set [3] (day 0); 10±3 x 10^5/ml in data set [3] (day 2); 13 ± 5 x 10^5/ml in data set [3] (day 3); 12 ± 4 x 10^5/ml in data set [3] (day 4); 12±4 x 10^5/ml in data set [3] (day 7). The “nombre de myélocytes circulants (result in words)” value in data set [3] (Muradimétide alone 25 mg/kg i.v., days 3 and 4) is recorded as “augmentation du nombre de myélocytes circulants qui est hautement significative”.

(Values after patent publication EP0819136B1, “MDP DERIVATIVES AND CONJUGATES HAVING HAEMATOPOIETIC FUNCTION STIMULATING ACTIVITY, AND COMPOSITIONS CONTAINING SAME” (VACSYN S.A., priority 1995, dated 1996).)
